Converted amounts (≈) assume the structure as drawn. The source made the active and inactive calls. No cut-off for these calls is given here. Non-standard residues stand in square brackets, D forms with d. Residues, ends and D or L forms follow the SMILES beside them. ξ: configuration not given here. Phe(4-NO2) = N[C@@H](Cc1ccc([N+](=O)[O-])cc1)C(=O)O; Pro(3ξ,4ξ-(CH2)4) = O=C(O)[C@H]1NCC2CCCCC21; Oic = O=C(O)[C@@H]1C[C@@H]2CCCC[C@@H]2N1; Pro(3,4-benzo) = O=C(O)[C@H]1NCc2ccccc21; Tic = O=C(O)[C@@H]1Cc2ccccc2CN1; βAla = NCCC(=O)O
How the values were obtained:
Mycobacterium = test: Antibacterial activity against Mycobacterium ranae ATCC 110; format: functional
Salmonella typhimurium = test: Antibacterial activity against Salmonella Typhimurium ATCC 13311; format: functional, Salmonella enterica subsp. enterica serovar Typhimurium; details: for MIC: Salmonella enterica; for Activity: Salmonella enterica subsp. enterica serovar Typhimurium
Staphylococcus aureus = test: Antibacterial activity against methicillin/gentamicin/tetracycline resistant Staphylococcus aureus ATCC 33592; format: functional
[1] = Toxicity to mouse RBC assessed as hemolytic activity at 100 uM; format: cell-based, Erythrocyte; details: red blood cells, read-out: Activity

With `CC(C)C[C@@H](NC(=O)CNC(=O)[C@H](CCCCN)NC(=O)CN)C(=O)N1Cc2ccccc2C[C@H]1C(=O)N1CC2CCCCC2[C@H]1C(=O)N[C@@H](Cc1ccccc1)C(=O)N[C@@H](CCCN)C(=O)N1Cc2ccccc2C[C@H]1C(=O)N1CC2CCCCC2[C@H]1C(=O)N[C@H](CCCCN)C(=O)N[C@@H](Cc1ccccc1)C(=O)N1Cc2ccccc2C[C@H]1C(=O)N1CC2CCCCC2[C@H]1C(=O)N[C@@H](Cc1ccccc1)C(=O)N[C@@H](CCCCN)C(=O)N1Cc2ccccc2C[C@H]1C(=O)N1CC2CCCCC2[C@H]1C(=O)N[C@@H](CCCCN)C(=O)N[C@@H](Cc1ccccc1)C(=O)N1Cc2ccccc2C[C@H]1C(=O)N1CC2CCCCC2[C@H]1C(=O)N[C@H](Cc1ccccc1)C(=O)N[C@@H](CCCCN)C(=O)N1Cc2ccccc2C[C@H]1C(=O)N1CC2CCCCC2[C@H]1C(=O)N[C@@H](Cc1ccccc1)C(=O)N[C@@H](CCCCN)C(=O)N[C@@H](CCCNC(=N)N)C(N)=O` (stereo partly specified) the Activity (Mycobacterium) was “inactive”.

Compound `CC(=O)NCC(=O)N[C@@H](Cc1ccccc1)C(=O)N1Cc2ccccc2C[C@H]1C(=O)N1[C@H](C(=O)NCC(=O)N[C@H](CCCCN)C(=O)N2Cc3ccccc3C[C@H]2C(=O)N2[C@H](C(=O)NCC(=O)N[C@@H](Cc3ccccc3)C(=O)N3Cc4ccccc4C[C@H]3C(=O)N3[C@H](C(=O)NCC(=O)N[C@H](CCCCN)C(=O)N4Cc5ccccc5C[C@H]4C(=O)N[C@@H](CCCCN)C(=O)N[C@@H](CCCCN)C(=O)N[C@@H](CCCCN)C(=O)N[C@@H](CCCCN)C(N)=O)C[C@@H]4CCCC[C@@H]43)C[C@@H]3CCCC[C@@H]32)C[C@@H]2CCCC[C@@H]21` (Ac-GF[Tic][Oic]G[dK][Tic][Oic]GF[Tic][Oic]G[dK][Tic]KKKK-NH2) has an MIC (Salmonella typhimurium) of 10 µM (≈ 24.4 µg/mL), an MIC (Mycobacterium) of 10 µM (≈ 24.4 µg/mL) and an MIC (Staphylococcus aureus) of 10 µM (≈ 24.4 µg/mL).

Work on `CC(=O)NCC(=O)N[C@@H](Cc1ccc([N+](=O)[O-])cc1)C(=O)N1Cc2ccccc2C[C@H]1C(=O)N1CC2CCCCC2[C@H]1C(=O)NCC(=O)N[C@@H](CCCCN)C(=O)N1Cc2ccccc2C[C@H]1C(=O)N1CC2CCCCC2[C@H]1C(=O)NCC(=O)N[C@@H](Cc1ccc([N+](=O)[O-])cc1)C(=O)N1Cc2ccccc2C[C@H]1C(=O)N1CC2CCCCC2[C@H]1C(=O)NCC(=O)N[C@@H](CCCCN)C(=O)N1Cc2ccccc2C[C@H]1C(=O)N[C@@H](CCCCN)C(=O)N[C@@H](CCCCN)C(=O)N[C@@H](CCCCN)C(=O)N[C@@H](CCCCN)C(N)=O` (stereo partly specified) (Ac-G[Phe(4-NO2)][Tic][Pro(3ξ,4ξ-(CH2)4)]GK[Tic][Pro(3ξ,4ξ-(CH2)4)]G[Phe(4-NO2)][Tic][Pro(3ξ,4ξ-(CH2)4)]GK[Tic]KKKK-NH2) yielded an MIC (Salmonella typhimurium) of 30 µM (≈ 75.9 µg/mL), an MIC (Mycobacterium) of 10 µM (≈ 25.3 µg/mL) and an MIC (Staphylococcus aureus) of 10 µM (≈ 25.3 µg/mL).

In the case of `CC(=O)NCC(=O)N[C@H](Cc1ccccc1)C(=O)N1Cc2ccccc2C[C@H]1C(=O)N1[C@H](C(=O)NCC(=O)N[C@@H](CCCCN)C(=O)N2Cc3ccccc3C[C@H]2C(=O)N2[C@H](C(=O)NCC(=O)N[C@H](Cc3ccccc3)C(=O)N3Cc4ccccc4C[C@H]3C(=O)N3[C@H](C(=O)NCC(=O)N[C@@H](CCCCN)C(=O)N4Cc5ccccc5C[C@H]4C(=O)N[C@@H](CCCCN)C(=O)N[C@@H](CCCCN)C(=O)N[C@@H](CCCCN)C(=O)N[C@@H](CCCCN)C(N)=O)C[C@@H]4CCCC[C@@H]43)C[C@@H]3CCCC[C@@H]32)C[C@@H]2CCCC[C@@H]21` (Ac-G[dF][Tic][Oic]GK[Tic][Oic]G[dF][Tic][Oic]GK[Tic]KKKK-NH2), the MIC (Salmonella typhimurium) is reported as 10 µM (≈ 24.4 µg/mL), the MIC (Mycobacterium) is reported as 10 µM (≈ 24.4 µg/mL) and the MIC (Staphylococcus aureus) is reported as 3 µM (≈ 7.32 µg/mL).

`CSCC[C@H](NC(=O)[C@H](CC(C)C)NC(=O)[C@H](CCC(=O)O)NC(=O)[C@@H]1c2ccccc2CN1C(=O)[C@@H]1Cc2ccccc2CN1C(=O)[C@H](Cc1ccccc1)NC(=O)CCNC(=O)[C@@H]1c2ccccc2CN1C(=O)[C@@H]1Cc2ccccc2CN1C(=O)[C@H](CCCCN)NC(=O)CCNC(=O)[C@@H]1c2ccccc2CN1C(=O)[C@@H]1Cc2ccccc2CN1C(=O)[C@H](Cc1ccccc1)NC(=O)CCNC(=O)[C@@H]1c2ccccc2CN1C(=O)[C@@H]1Cc2ccccc2CN1C(=O)[C@H](CCCCN)NC(=O)CCNC(=O)CCNC(=O)CNC(=O)[C@H](CC(C)C)NC(=O)CNC(=O)[C@H](CCCCN)NC(=O)CNC(=O)[C@@H](N)CCC(=O)O)C(=O)N[C@@H](CC(N)=O)C(=O)N[C@@H](CO)C(N)=O` (H-EGKGLG[βAla][βAla]K[Tic][Pro(3,4-benzo)][βAla]F[Tic][Pro(3,4-benzo)][βAla]K[Tic][Pro(3,4-benzo)][βAla]F[Tic][Pro(3,4-benzo)]ELMNS-NH2) gave a hemolysis at 100 µM [1] of 27%.

For `CC(C)C[C@H](NC(=O)[C@@H]1C2CCCCC2CN1C(=O)[C@@H]1Cc2ccccc2CN1C(=O)CNC(=O)[C@H](CCCCN)NC(=O)CNC(=O)[C@@H]1C2CCCCC2CN1C(=O)[C@@H]1Cc2ccccc2CN1C(=O)[C@H](CO)NC(=O)[C@H](CC(C)C)NC(=O)[C@@H](N)CCC(=O)O)C(=O)N[C@@H](CCCCN)C(=O)N[C@@H](CCC(=O)O)C(=O)N[C@@H](CO)C(N)=O` (stereo partly specified) (H-ELS[Tic][Pro(3ξ,4ξ-(CH2)4)]GKG[Tic][Pro(3ξ,4ξ-(CH2)4)]LKES-NH2), the hemolysis at 100 µM [1] was 23%.

For `CSCC[C@H](NC(=O)[C@H](CC(C)C)NC(=O)[C@H](CCC(=O)O)NC(=O)[C@@H]1C[C@@H]2CCCC[C@@H]2N1C(=O)[C@@H]1Cc2ccccc2CN1C(=O)[C@H](Cc1ccccc1)NC(=O)CNC(=O)[C@@H]1C[C@@H]2CCCC[C@@H]2N1C(=O)[C@@H]1Cc2ccccc2CN1C(=O)[C@H](CCCNC(=N)N)NC(=O)CNC(=O)[C@@H]1C[C@@H]2CCCC[C@@H]2N1C(=O)[C@@H]1Cc2ccccc2CN1C(=O)[C@H](Cc1ccccc1)NC(=O)CNC(=O)[C@@H]1C[C@@H]2CCCC[C@@H]2N1C(=O)[C@@H]1Cc2ccccc2CN1C(=O)[C@H](CCCNC(=N)N)NC(=O)CNC(=O)[C@@H]1C[C@@H]2CCCC[C@@H]2N1C(=O)[C@@H]1Cc2ccccc2CN1C(=O)[C@H](CC(C)C)NC(=O)CNC(=O)[C@H](CCCCN)NC(=O)CN)C(=O)N[C@@H](CC(N)=O)C(=O)N[C@@H](CO)C(N)=O` (H-GKGL[Tic][Oic]GR[Tic][Oic]GF[Tic][Oic]GR[Tic][Oic]GF[Tic][Oic]ELMNS-NH2), the hemolysis at 100 µM [1] was 70%.

Compound `CC(C)C[C@H](NC(=O)CNC(=O)[C@H](CCCCN)NC(=O)CN)C(=O)N1Cc2ccccc2C[C@H]1C(=O)N1[C@H](C(=O)NCC(=O)N[C@@H](CCCNC(=N)N)C(=O)N2Cc3ccccc3C[C@H]2C(=O)N2[C@H](C(=O)NCC(=O)N[C@@H](Cc3ccccc3)C(=O)N3Cc4ccccc4C[C@H]3C(=O)N3[C@H](C(=O)NCC(=O)N[C@@H](CCCNC(=N)N)C(=O)N4Cc5ccccc5C[C@H]4C(=O)N4[C@H](C(=O)NCC(=O)N[C@@H](Cc5ccccc5)C(=O)N5Cc6ccccc6C[C@H]5C(=O)N5[C@H](C(=O)NCC(=O)N[C@@H](CCCNC(=N)N)C(=O)N6Cc7ccccc7C[C@H]6C(=O)N6[C@H](C(=O)NCC(=O)N[C@@H](CCCCN)C(=O)N[C@@H](CCCNC(=N)N)C(N)=O)C[C@@H]7CCCC[C@@H]76)C[C@@H]6CCCC[C@@H]65)C[C@@H]5CCCC[C@@H]54)C[C@@H]4CCCC[C@@H]43)C[C@@H]3CCCC[C@@H]32)C[C@@H]2CCCC[C@@H]21` (H-GKGL[Tic][Oic]GR[Tic][Oic]GF[Tic][Oic]GR[Tic][Oic]GF[Tic][Oic]GR[Tic][Oic]GKR-NH2) has a hemolysis at 100 µM [1] of 100%.

With `CC(C)C[C@H](NC(=O)CNC(=O)[C@H](CCCCN)NC(=O)CN)C(=O)N1Cc2ccccc2C[C@H]1C(=O)N1CC2CCCCC2[C@H]1C(=O)NCC(=O)N[C@@H](CCCNC(=N)N)C(=O)N1Cc2ccccc2C[C@H]1C(=O)N1CC2CCCCC2[C@H]1C(=O)NCC(=O)N[C@@H](Cc1ccccc1)C(=O)N1Cc2ccccc2C[C@H]1C(=O)N1CC2CCCCC2[C@H]1C(=O)NCC(=O)N[C@@H](CCCNC(=N)N)C(=O)N1Cc2ccccc2C[C@H]1C(=O)N1CC2CCCCC2[C@H]1C(=O)NCC(=O)N[C@@H](Cc1ccccc1)C(=O)N1Cc2ccccc2C[C@H]1C(=O)N1CC2CCCCC2[C@H]1C(=O)NCC(=O)N[C@@H](CCCNC(=N)N)C(=O)N1Cc2ccccc2C[C@H]1C(=O)N1CC2CCCCC2[C@H]1C(=O)NCC(=O)N[C@@H](CCCCN)C(=O)N[C@@H](CCCNC(=N)N)C(N)=O` (stereo partly specified) (H-GKGL[Tic][Pro(3ξ,4ξ-(CH2)4)]GR[Tic][Pro(3ξ,4ξ-(CH2)4)]GF[Tic][Pro(3ξ,4ξ-(CH2)4)]GR[Tic][Pro(3ξ,4ξ-(CH2)4)]GF[Tic][Pro(3ξ,4ξ-(CH2)4)]GR[Tic][Pro(3ξ,4ξ-(CH2)4)]GKR-NH2) the Activity (Mycobacterium) was “inactive”.

In the case of `CSCC[C@H](NC(=O)[C@H](CC(C)C)NC(=O)[C@H](CCC(=O)O)NC(=O)[C@@H]1CCCN1C(=O)[C@@H]1C2CCCCC2CN1C(=O)[C@H](CCCCN)NC(=O)CNC(=O)[C@H](CC(C)C)NC(=O)CNC(=O)[C@@H]1CCCN1C(=O)[C@@H]1C2CCCCC2CN1C(=O)[C@H](CCCCN)NC(=O)CNC(=O)[C@H](CC(C)C)NC(=O)CNC(=O)[C@@H]1CCCN1C(=O)[C@@H]1C2CCCCC2CN1C(=O)[C@H](CCSC)NC(=O)[C@H](CCCCN)NC(=O)CN)C(=O)NCC(=O)N[C@@H](CCCNC(=N)N)C(N)=O` (stereo partly specified) (H-GKM[Pro(3ξ,4ξ-(CH2)4)]PGLGK[Pro(3ξ,4ξ-(CH2)4)]PGLGK[Pro(3ξ,4ξ-(CH2)4)]PELMGR-NH2), the Activity (Salmonella typhimurium) is reported as “inactive” and the Activity (Staphylococcus aureus) is reported as “inactive”.

With `CSCC[C@H](NC(=O)[C@H](CC(C)C)NC(=O)[C@H](CCC(=O)O)NC(=O)[C@@H]1Cc2ccccc2CN1C(=O)[C@H](CCCCN)NC(=O)CNC(=O)[C@H](CC(C)C)NC(=O)CNC(=O)[C@@H]1Cc2ccccc2CN1C(=O)[C@H](CCCCN)NC(=O)CNC(=O)[C@H](CC(C)C)NC(=O)CNC(=O)[C@@H]1Cc2ccccc2CN1C(=O)[C@H](CCSC)NC(=O)[C@H](CCCCN)NC(=O)CN)C(=O)NCC(=O)N[C@@H](CCCNC(=N)N)C(N)=O` (H-GKM[Tic]GLGK[Tic]GLGK[Tic]ELMGR-NH2) the Activity (Salmonella typhimurium) was “inactive” and the Activity (Staphylococcus aureus) was “inactive”.

For `CSCC[C@H](NC(=O)[C@H](CC(C)C)NC(=O)[C@H](CCC(=O)O)NC(=O)[C@@H]1CCCN1C(=O)[C@@H]1Cc2ccccc2CN1C(=O)[C@H](CCCCN)NC(=O)CNC(=O)[C@H](CC(C)C)NC(=O)CNC(=O)[C@@H]1CCCN1C(=O)[C@@H]1Cc2ccccc2CN1C(=O)[C@H](CCCCN)NC(=O)CNC(=O)[C@H](CC(C)C)NC(=O)CNC(=O)[C@@H]1CCCN1C(=O)[C@@H]1Cc2ccccc2CN1C(=O)[C@H](CCSC)NC(=O)[C@H](CCCCN)NC(=O)CN)C(=O)NCC(=O)N[C@@H](CCCNC(=N)N)C(N)=O` (H-GKM[Tic]PGLGK[Tic]PGLGK[Tic]PELMGR-NH2), the Activity (Salmonella typhimurium) was “inactive” and the Activity (Staphylococcus aureus) was “inactive”.

Reference: ChEMBL document CHEMBL1145395, “De novo design of selective antibiotic peptides by incorporation of unnatural amino acids” (J Med Chem, 2007)
